Values of other authors in patent US20030175210A1, “Individualization of therapy with anxiolitics” (McGill University, priority 2001, published 2003).

Settings: in vivo

SMILES: O=C1Nc2ccc(Cl)cc2C(c2ccccc2Cl)=NC1O (stereo not shown) [Lorazepam]
- half-life: 10 to 15 h
